Test results from patent US9573891B2, “Complexes of agomelatine and sulphonic acids, a process for their preparation and pharmaceutical compositions containing them” (LES LABORATOIRES SERVIER, priority 2013, dated 2017).

Legend:
[1] = Stability under denaturing conditions in incubators, determined by DSC over 2 months; format: physicochemical
Description: Samples of the compounds of Examples 1, 2 and 3 are placed in incubators under denaturing conditions and the stability is determined by DSC measurements over 2 months.

[2] = Solubility by HPLC (external standard method) compared with agomelatine of form II; format: physicochemical
Description: Using an external standard method, the compounds of Examples 1, 2 and 3 are tested by HPLC and compared with agomelatine of form II. The results are presented in Table 5 in the form of % increase in solubility relative to the solubility of agomelatine of form II: […]

Stability ([1]; 25° C., 60% RH, open bottle)	Stability ([1]; 50° C., closed bottle)	Stability ([1]; 70° C., closed bottle)	Solubility (increase versus agomelatine form II) in 0.1N HCl [2]	Solubility (increase versus agomelatine form II) in a buffer pH 6.8 [2]	Solubility (increase versus agomelatine form II) in water [2]	Compound
stable	stable	stable	+25%	+48%	+18%	COc1ccc2cccc(CCNC(C)=O)c2c1.O=S(=O)(O)c1cccc2c(S(=O)(=O)O)cccc12 [Compound of Example 1, Agomelatine/1,5-Naphthalenedisulphonic Acid (2/1) Complex]
stable	stable	stable	+75%	+57%	+12%	COc1ccc2cccc(CCNC(C)=O)c2c1.O.O=S(=O)(O)c1cccc2c(S(=O)(=O)O)cccc12 [Compound of Example 2, Agomelatine/1,5-Naphthalenedisulphonic Acid (2/1) Monohydrate Complex]
stable	stable	stable	+32%	+46%	+22%	COc1ccc2cccc(CCNC(C)=O)c2c1.COc1ccc2cccc(CCNC(C)=O)c2c1.O=S(=O)(O)c1ccccc1 [Compound of Example 3, Agomelatine/Benzenesulphonic Acid (2/1) Complex]
